Experimental data reported in US10183944B2 (Asana Biosciences, LLC, priority 2011, dated 2019).
Structures can show the parent of a compound that is named as a salt. Where two headings read alike, the source gives them in different places.

Experiments:
[1] = target: JAK2 (Homo sapiens (Human), UniProt O60674); assay: Inhibition of enzymatic JAK2 kinase activity (TR-FRET); format: biochemical; conditions: read-out: IC50 JAK
Summary of the method: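 TR-FRET read-out (Eu antibody donor, Ulight poly Glu-Tyr acceptor, 665/615 nm ratio) after a 60 min RT kinase reaction with ATP, begun following 30 min compound–enzyme preincubation. Stopped by EDTA; inhibition expressed as 100 minus % activity of positive control.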

[2] = test system: RBL2H3 cells; assay: Degranulation assay: β-hexosaminidase release during immune complex mediated degranulation; format: cell-based, rat; conditions: Assay Protocol B (96 well format); for inhibition at 1 µM: read-out: Degranulation % inhibition at 1 μM; for EC50: read-out: Degranulation EC50
Summary of the method: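 Fluorometric β-NAG read-out (Ex 355, Em 460 nm; 30 min, RT) of supernatant after DNP-BSA stimulation (45–60 min) of anti-DNP IgE-sensitized RBL2H3 cells. Compounds (0.5% DMSO) added 15 min before antigen; degranulation expressed as % β-hexosaminidase release or inhibition.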

[3] = target: Syk (356-635 amino acids) catalytic domain (Homo sapiens (Human), UniProt P43405); assay: Inhibition of enzymatic Syk kinase activity (radiometric); format: biochemical; conditions: read-out: IC50 Syk
Summary of the method: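 Radiometric filter-binding format: 32P transfer from γ-32P-ATP onto pG4T, scintillation-counted after acid washes of P81 paper. Syk kinase domain (356-635), 0.035–7.5 ng per reaction, was exposed to compound for 30 minutes at room temperature before a 10-minute, 30° C. reaction with ATP (100 μM stock). Inhibition derived from counts with versus without compound.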

[4] = Rattus norvegicus, RBL-2H3, 1 μM

Chain of JAK2 (O60674 808-1132): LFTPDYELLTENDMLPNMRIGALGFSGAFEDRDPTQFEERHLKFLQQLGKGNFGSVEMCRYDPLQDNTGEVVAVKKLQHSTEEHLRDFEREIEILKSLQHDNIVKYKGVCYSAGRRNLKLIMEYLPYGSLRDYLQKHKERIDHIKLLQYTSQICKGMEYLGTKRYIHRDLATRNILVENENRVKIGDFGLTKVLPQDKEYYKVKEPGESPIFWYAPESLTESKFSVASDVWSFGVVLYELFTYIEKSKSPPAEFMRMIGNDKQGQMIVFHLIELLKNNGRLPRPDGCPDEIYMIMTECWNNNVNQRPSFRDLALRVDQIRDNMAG

SMILES	IC50 [1] [nM]	inhibition at 1 µM [2, 4] [%]	EC50 ([2]; Rattus norvegicus, RBL-2H3) [nM]	IC50 [3] [nM]	Degranulation % inhibition at 1 μM ([2]; 1 μM) [%]	EC50 [2] [nM]
O=c1[nH]ncc2nc(N3CCCCCC3)nc(Nc3ccc(CCCN4CCNCC4)cc3)c12 [Example 173, 2-(azepan-1-yl)-4-((4-(3-(piperazin-1-yl)propyl)phenyl)amino)pyrimido[4,5-d]pyridazin-5(6H)-one]	< 50	66	29	< 50		
O=c1[nH]ncc2nc(N3CCCCCC3)nc(Nc3ccc(CN4CCNCC4)cc3)c12 [Example 52, 2-(azepan-1-yl)-4-((4-(piperazin-1-ylmethyl)phenyl)amino)pyrimido[4,5-d]pyridazin-5(6H)-one hydrochloride]	< 10	100	1	< 10		
N#CCC1CCN(c2nc(Nc3ccc(CCC(=O)O)cc3)c3c(=O)[nH]ncc3n2)CC1 [Example 305, 3-(4-((2-(4-(cyanomethyl)piperidin-1-yl)-5-oxo-5,6-dihydropyrimido[4,5-d]pyridazin-4-yl)amino)phenyl)propanoic acid]	< 50	17	834	< 10		
O=C(O)C1CC12CCN(c1ccc(Nc3nc(-c4ccsc4)nc4cn[nH]c(=O)c34)cc1)CC2 (centres unmarked) [Example 39, 6-(4-(5-oxo-2-(thiophen-3-yl)-5,6-dihydropyrimido[4,5-d]pyridazin-4-ylamino)phenyl)-6-azaspiro[2.5]octane-1-carboxylic acid]	< 50	100		< 50		
NC(=O)CC1CCN(c2ccc(Nc3nc(N4CCCCCC4)nc4cn[nH]c(=O)c34)cn2)CC1 [Example 99, 2-(1-(5-((2-(azepan-1-yl)-5-oxo-5,6-dihydropyrimido[4,5-d]pyridazin-4-yl)amino)pyridin-2-yl)piperidin-4-yl) acetamide]	< 50	94	44	< 10		
CN1CCN(CCOc2ccc(Nc3nc(N4CCCCCC4)nc4cn[nH]c(=O)c34)cc2)CC1 [Example 95, 2-(azepan-1-yl)-4-((4-(2-(4-methylpiperazin-1-yl)ethoxy)phenyl)amino)pyrimido[4,5-d]pyridazin-5(6H)-one]	< 50	35		< 50		
CCN1CCN(c2ccc(Nc3nc(N4CCCCCC4)nc4cn[nH]c(=O)c34)cc2)CC1 [Example 180, 2-(azepan-1-yl)-4-((4-(4-ethylpiperazin-1-yl)phenyl)amino)pyrimido[4,5-d]pyridazin-5(6H)-one]	< 10	70	3	< 10		
N#CCC1CCN(c2nc(Nc3ccc(N4CCCC(CO)C4)cc3)c3c(=O)[nH]ncc3n2)CC1 (centres unmarked) [Example 284, 2-(1-(4-((4-(3-(hydroxymethyl)piperidin-1-yl)phenyl)amino)-5-oxo-5,6-dihydropyrimido[4,5-d]pyridazin-2-yl)piperidin-4-yl)acetonitrile]	< 10	92	21	< 10		
COc1cccc(-c2nc(Nc3ccc(N4CCC5(CC4)CC5C(=O)O)cc3)c3c(=O)[nH]ncc3n2)c1 (centres unmarked) [Example 47, 6-(4-((2-(3-methoxyphenyl)-5-oxo-5,6-dihydropyrimido[4,5-d]pyridazin-4-yl)amino)phenyl)-6-azaspiro[2.5]octane-1-carboxylic acid]	< 100	100	132	< 100		
O=c1[nH]ncc2nc(N3CCCCCC3)nc(Nc3ccc(OCCN4CCNCC4)cc3)c12 [Example 107, 2-(azepan-1-yl)-4-((4-(2-(piperazin-1-yl)ethoxy)phenyl)amino)pyrimido[4,5-d]pyridazin-5(6H)-one]	< 50	91	94	< 10		
N#CCC1CCN(c2nc(Nc3ccc(CCN4CCN(CCO)CC4)cc3)c3c(=O)[nH]ncc3n2)CC1 [Example 212, 2-(1-(4-((4-(2-(4-(2-hydroxyethyl)piperazin-1-yl)ethyl)phenyl)amino)-5-oxo-5,6-dihydropyrimido[4,5-d]pyridazin-2-yl)piperidin-4-yl)acetonitrile]	< 50	71	28	< 50		
O=C(CC1CCN(c2ccc(Nc3nc(N4CCCCCC4)nc4cn[nH]c(=O)c34)cc2)CC1)N(CCO)CCO [Example 118, 2-(1-(4-((2-(azepan-1-yl)-5-oxo-5,6-dihydropyrimido[4,5-d]pyridazin-4-yl)amino)phenyl)piperidin-4-yl)-N,N-bis(2-hydroxyethyl)acetamide]	< 10	87	153	< 50		
N=Cc1nc(N2CCCCCC2)nc(Nc2ccc(N3CCCC(CC(=O)O)C3)cc2)c1C(N)=O (centres unmarked) [Example 232]	< 10			< 50	0	619
N#CCC1CCN(c2nc(Nc3ccc(N4CCC(CC(=O)O)CC4)cc3)c3c(=O)[nH]ncc3n2)CC1 [Example 71, 2-(1-(4-((2-(4-(cyanomethyl)piperidin-1-yl)-5-oxo-5,6-dihydropyrimido[4,5-d]pyridazin-4-yl)amino)phenyl)piperidin-4-yl)acetic acid]	> 100	65	1020	> 100		
N#CCC1CCN(c2nc(Nc3ccc(N4CCNCC4)nc3)c3c(=O)[nH]ncc3n2)CC1 [Example 231, 2-(1-(5-oxo-4-((6-(piperazin-1-yl)pyridin-3-yl)amino)-5,6-dihydropyrimido[4,5-d]pyridazin-2-yl)piperidin-4-yl)acetonitrile]	< 100	0	367	< 50		
O=C(O)CN1CCCN(c2ccc(Nc3nc(N4CCCCCC4)nc4cn[nH]c(=O)c34)cc2)CC1 [Example 145, 2-(4-(4-((2-(azepan-1-yl)-5-oxo-5,6-dihydropyrimido[4,5-d]pyridazin-4-yl)amino)phenyl)-1,4-diazepan-1-yl)acetic acid]	< 10	52	98	< 10		
O=C(O)CC1CCN(c2ccc(Nc3nc(N4CCCCCCC4)nc4cn[nH]c(=O)c34)cc2)CC1 [Example 88, 2-(1-(4-((2-(azocan-1-yl)-5-oxo-5,6-dihydropyrimido[4,5-d]pyridazin-4-yl)amino)phenyl)piperidin-4-yl)acetic acid]	< 10	100	76	< 10		
O=C(O)CCCOc1ccc(Nc2nc(N3CCCCCC3)nc3cn[nH]c(=O)c23)cc1 [Example 92, 4-(4-((2-(azepan-1-yl)-5-oxo-5,6-dihydropyrimido[4,5-d]pyridazin-4-yl)amino)phenoxy)butanoic acid]	< 50	100	111	< 10		
O=c1[nH]ncc2nc(N3CCCCCC3)nc(Nc3ccc(N4CCNCC4)cc3)c12 [Example 192, 2-(azepan-1-yl)-4-((4-(piperazin-1-yl)phenyl)amino)pyrimido[4,5-d]pyridazin-5(6H)-one]	< 10	82	27	< 10		
